We go through 17 molecules from patent US8288435B2, “2-aza-bicyclo[3.1.0]hexane derivatives as orexin receptor antagonists” (Actelion Pharmaceuticals Ltd., priority 2006, dated 2012).

One test has as its target T1, human orexin-1 receptor (Homo sapiens, UniProt O43613).
T1 construct: expressed in transfected cells; host or cells: CHO (Chinese hamster ovary) cells, G418 selection
T1 sequence (O43613 1-425): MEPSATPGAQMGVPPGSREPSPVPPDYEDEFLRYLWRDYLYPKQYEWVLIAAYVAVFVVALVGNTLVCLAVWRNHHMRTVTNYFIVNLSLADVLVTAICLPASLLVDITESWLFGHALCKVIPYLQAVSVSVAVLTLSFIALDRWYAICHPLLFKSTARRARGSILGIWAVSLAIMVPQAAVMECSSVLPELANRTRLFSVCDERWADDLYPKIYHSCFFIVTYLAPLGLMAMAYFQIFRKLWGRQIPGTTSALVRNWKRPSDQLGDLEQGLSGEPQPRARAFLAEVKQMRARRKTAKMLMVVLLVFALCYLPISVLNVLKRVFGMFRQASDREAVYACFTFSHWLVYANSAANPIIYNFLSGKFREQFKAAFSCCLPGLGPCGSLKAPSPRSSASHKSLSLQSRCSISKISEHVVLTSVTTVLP
Put plainly: Intracellular calcium measurements (FLIPR), orexin receptor antagonistic activity, OX1. It counts as cell-based. To be noted: CHO cells expressing the human orexin-1 receptor, 10 nM orexin-A as agonist. The protocol: (§1) The orexin receptor antagonistic activity of the compounds of formula (I) is determined in accordance with the following experimental method.
(§2) Intracellular Calcium Measurements:
(§3) Chinese hamster ovary (CHO) cells expressing the human orexin-1 receptor and the human orexin-2 receptor, respectively, are grown in culture medium (Ham F-12 with L-Glutamine) containing 300 μg/ml G418, 100 U/ml penicillin, 100 μg/ml streptomycin and 10% inactivated fetal calf serum (FCS). The cells are seeded at 80′000 cells/well into 96-well black clear bottom sterile plates (Costar) which have been precoated with 1% gelatine in Hanks' Balanced Salt Solution (HBSS). All reagents are from Gibco BRL. The seeded plates are incubated overnight at 37° C. in 5% CO2.
(§4) Human orexin-A as an agonist is prepared as 1 mM stock solution in MeOH:water (1:1), diluted in HBSS containing 0.1% bovine serum albumin (BSA) and 2 mM HEPES for use in the assay at a final concentration of 10 nM.
(§5) Antagonists are prepared as 10 mM stock solution in DMSO, then diluted in 96-well plates, first in DMSO, then in HBSS containing 0.1% bovine serum albumin (BSA) and 2 mM HEPES.
(§6) On the day of the assay, 100 μl of loading medium (HBSS containing 1% FCS, 2 mM HEPES, 5 mM probenecid (Sigma) and 3 μM of the fluorescent calcium indicator fluo-3 AM (1 mM stock solution in DMSO with 10% pluronic acid) (Molecular Probes) is added to each well.
(§7) The 96-well plates are incubated for 60 min at 37° C. in 5% CO2. The loading solution is then aspirated and cells are washed 3 times with 200 μl HBSS containing 2.5 mM probenecid, 0.1% BSA, 2 mM HEPES. 100 μl of that same buffer is left in each well.
(§8) Within the Fluorescent Imaging Plate Reader (FLIPR, Molecular Devices), antagonists are added to the plate in a volume of 50 μl, incubated for 20 min and finally 100 μl of agonist is added. Fluorescence is measured for each well at 1 second intervals, and the height of each fluorescence peak is compared to the height of the fluorescence peak induced by 10 nM orexin-A with buffer in place of antagonist. For each antagonist, IC50 value (the concentration of compound needed to inhibit 50% of the agonistic response) is determined.

Another test deals with T2, human orexin-2 receptor (Homo sapiens, UniProt O43614).
T2 construct: expressed in transfected cells; host or cells: CHO (Chinese hamster ovary) cells, G418 selection
T2 sequence (O43614 1-444): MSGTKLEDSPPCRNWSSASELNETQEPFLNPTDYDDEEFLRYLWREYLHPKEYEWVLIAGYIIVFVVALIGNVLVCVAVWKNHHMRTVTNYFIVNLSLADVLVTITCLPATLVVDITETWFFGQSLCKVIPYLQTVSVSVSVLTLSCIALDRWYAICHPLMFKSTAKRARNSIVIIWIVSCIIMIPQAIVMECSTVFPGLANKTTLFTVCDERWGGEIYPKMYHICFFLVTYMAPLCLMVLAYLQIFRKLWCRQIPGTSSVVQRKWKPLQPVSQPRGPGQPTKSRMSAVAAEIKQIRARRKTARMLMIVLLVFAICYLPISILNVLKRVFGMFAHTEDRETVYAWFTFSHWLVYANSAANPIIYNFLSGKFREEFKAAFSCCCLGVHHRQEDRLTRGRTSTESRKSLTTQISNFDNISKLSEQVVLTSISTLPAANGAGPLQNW
Description: Intracellular calcium measurements (FLIPR), orexin receptor antagonistic activity, OX2. To be noted: CHO cells expressing the human orexin-2 receptor, 10 nM orexin-A as agonist. It is filed as cell-based. The protocol:
as §1, §2, §3, §4, §5, §6, §7, §8

Turning to `O=C(NC[C@@H]1C[C@@H]2C[C@@H]2N1C(=O)c1ccccc1-c1cccc(Cl)c1)c1cccc2occc12` [Example 8, benzofuran-4-carboxylic acid [(1S,3S,5S)-2-(3′-chloro-biphenyl-2-carbonyl)-2-aza-bicyclo[3.1.0]hex-3-ylmethyl]-amide], the IC50 at human orexin-1 receptor stood at 0.045 µM; on human orexin-2 receptor, 0.078 µM.

`Cc1cccc(-c2sc(C)nc2C(=O)N2[C@H](CNC(=O)c3c(C)nc4sccn34)C[C@@H]3C[C@@H]32)c1` [Example 11, 6-methyl-imidazo[2,1-b]thiazole-5-carboxylic acid [(1S,3S,5S)-2-(2-methyl-5-m-tolyl-thiazole-4-carbonyl)-2-aza-bicyclo[3.1.0]hex-3-ylmethyl]-amide]: the IC50 is 0.007 µM on human orexin-1 receptor and 0.024 µM at human orexin-2 receptor.

Regarding `Cc1nc2sccn2c1C(=O)NC[C@@H]1C[C@@H]2C[C@@H]2N1C(=O)c1ccccc1-c1cccc(Cl)c1` [Example 17, 6-methyl-imidazo[2,1-b]thiazole-5-carboxylic acid [(1S,3S,5S)-2-(3′-chloro-biphenyl-2-carbonyl)-2-aza-bicyclo[3.1.0]hex-3-ylmethyl]-amide], the results for the IC50 at human orexin-1 receptor and at human orexin-2 receptor were 0.015 µM and 0.06 µM, respectively.

With `Nc1nc(C(=O)N2[C@H](CNC(=O)c3cccc4c3OCCO4)C[C@@H]3C[C@@H]32)c(-c2cccc(F)c2)s1` [Example 25, 2,3-dihydro-benzo[1,4]dioxine-5-carboxylic acid {(1S,3S,5S)-2-[2-amino-5-(3-fluoro-phenyl)-thiazole-4-carbonyl]-2-aza-bicyclo[3.1.0]hex-3-ylmethyl}-amide], the values for the IC50 on human orexin-1 receptor and on human orexin-2 receptor were 0.08 µM and 0.014 µM, respectively.

On to `Cc1cccc(-c2sc(N)nc2C(=O)N2[C@H](CNC(=O)c3c(C)noc3C)C[C@@H]3C[C@@H]32)c1` [Example 33, 3,5-dimethyl-isoxazole-4-carboxylic acid [(1S,3S,5S)-2-(2-amino-5-m-tolyl-thiazole-4-carbonyl)-2-aza-bicyclo[3.1.0]hex-3-ylmethyl]-amide], for which the IC50 is 0.129 µM on human orexin-1 receptor and 0.094 µM on human orexin-2 receptor.

Turning to `Cc1nc(C(=O)N2[C@H](CNC(=O)c3nccc4ccccc34)C[C@@H]3C[C@@H]32)c(-c2cccc(F)c2)s1` [Example 38, isoquinoline-1-carboxylic acid {(1S,3S,5S)-2-[5-(3-fluoro-phenyl)-2-methyl-thiazole-4-carbonyl]-2-aza-bicyclo[3.1.0]hex-3-ylmethyl}-amide], the IC50 on human orexin-1 receptor worked out at 0.104 µM; on human orexin-2 receptor, 0.358 µM.

As for `Nc1nc(C(=O)N2[C@H](CNC(=O)c3cnc4sccn34)C[C@@H]3C[C@@H]32)c(-c2cccc(F)c2)s1` [Example 57, imidazo[2,1-b]thiazole-5-carboxylic acid {(1S,3S,5S)-2-[2-amino-5-(3-fluoro-phenyl)-thiazole-4-carbonyl]-2-aza-bicyclo[3.1.0]hex-3-ylmethyl}-amide], the results for the IC50 at human orexin-1 receptor and on human orexin-2 receptor were 0.012 µM and 0.011 µM, respectively.

Regarding `Cc1cccc(-c2sc(C)nc2C(=O)N2[C@H](CNC(=O)c3ccc4ccccc4n3)C[C@@H]3C[C@@H]32)c1` [Example 93, Quinoline-2-carboxylic acid [(1S,3S,5S)-2-(2-methyl-5-m-tolyl-thiazole-4-carbonyl)-2-aza-bicyclo[3.1.0]hex-3-ylmethyl]-amide], the IC50 at human orexin-1 receptor was 0.014 µM; at human orexin-2 receptor, 0.04 µM.

For `CCn1cc(C(=O)NC[C@@H]2C[C@@H]3C[C@@H]3N2C(=O)c2nc(C)sc2-c2cccc(C)c2)c(C)n1` [Example 99, 1-Ethyl-3-methyl-1H-pyrazole-4-carboxylic acid [(1S,3S,5S)-2-(2-methyl-5-m-tolyl-thiazole-4-carbonyl)-2-aza-bicyclo[3.1.0]hex-3-ylmethyl]-amide], the IC50 at human orexin-1 receptor was determined as 0.042 µM; at human orexin-2 receptor, 0.015 µM.

Consider `Cc1cccc(-c2sc(C)nc2C(=O)N2[C@H](CNC(=O)c3cccc(C(F)(F)F)c3)C[C@@H]3C[C@@H]32)c1` [Example 101, N-[(1S,3S,5S)-2-(2-Methyl-5-m-tolyl-thiazole-4-carbonyl)-2-aza-bicyclo[3.1.0]hex-3-ylmethyl]-3-trifluoromethyl-benzamide], for which the results for the IC50 on human orexin-1 receptor and at human orexin-2 receptor were 0.042 µM and 0.057 µM, respectively.

`COc1ccc(C(=O)NC[C@@H]2C[C@@H]3C[C@@H]3N2C(=O)c2nc(C)sc2-c2cccc(C)c2)cc1OC` [Example 123, 3,4-Dimethoxy-N-[(1S,3S,5S)-2-(2-methyl-5-m-tolyl-thiazole-4-carbonyl)-2-aza-bicyclo[3.1.0]hex-3-ylmethyl]-benzamide]: the IC50 stood at 1.98 µM on human orexin-1 receptor and 0.074 µM at human orexin-2 receptor.

On to `Cc1cccc(-c2sc(C)nc2C(=O)N2[C@H](CNC(=O)c3cccc4c3OCCN4C)C[C@@H]3C[C@@H]32)c1` [Example 130, 4-Methyl-3,4-dihydro-2H-benzo[1,4]oxazine-8-carboxylic acid [(1S,3S,5S)-2-(2-methyl-5-m-tolyl-thiazole-4-carbonyl)-2-aza-bicyclo[3.1.0]hex-3-ylmethyl]-amide], for which the IC50 at human orexin-1 receptor was 0.076 µM; on human orexin-2 receptor, 0.129 µM.

`Cc1nc(C(=O)N2[C@H](CNC(=O)c3noc4ccccc34)C[C@@H]3C[C@@H]32)c(-c2cccc(Cl)c2)s1` [Example 147, Benzo[d]isoxazole-3-carboxylic acid {(1S,3S,5S)-2-[5-(3-chloro-phenyl)-2-methyl-thiazole-4-carbonyl]-2-aza-bicyclo[3.1.0]hex-3-ylmethyl}-amide]: the IC50 on human orexin-1 receptor is 0.051 µM; on human orexin-2 receptor, 0.074 µM.

For the molecule `Cc1cccc(-c2sc(N)nc2C(=O)N2[C@H](CNC(=O)c3cccc(Br)c3)C[C@@H]3C[C@@H]32)c1` [Example 163, N-[(1S,3S,5S)-2-(2-Amino-5-m-tolyl-thiazole-4-carbonyl)-2-aza-bicyclo[3.1.0]hex-3-ylmethyl]-3-bromo-benzamide], the IC50 on human orexin-1 receptor came out at 0.062 µM; on human orexin-2 receptor, 0.057 µM.

As to `Cc1cccc(-c2sc(N)nc2C(=O)N2[C@H](CNC(=O)c3cccc4cccnc34)C[C@@H]3C[C@@H]32)c1` [Example 176, Quinoline-8-carboxylic acid [(1S,3S,5S)-2-(2-amino-5-m-tolyl-thiazole-4-carbonyl)-2-aza-bicyclo[3.1.0]hex-3-ylmethyl]-amide], the IC50 was determined as 0.045 µM at human orexin-1 receptor and 0.057 µM on human orexin-2 receptor.

Turning to `Cc1nc(C(=O)N2[C@H](CNC(=O)c3cccc4c3CCO4)C[C@@H]3C[C@@H]32)c(-c2ccc(Br)cc2)s1` [Example 192, 2,3-Dihydro-benzofuran-4-carboxylic acid {(1S,3S,5S)-2-[5-(4-bromo-phenyl)-2-methyl-thiazole-4-carbonyl]-2-aza-bicyclo[3.1.0]hex-3-ylmethyl}-amide], the IC50 on human orexin-1 receptor came out at 0.11 µM; at human orexin-2 receptor, 0.035 µM.

As to `Cc1nc(C(=O)N2[C@H](CNC(=O)c3cccc4c3CCO4)C[C@@H]3C[C@@H]32)c(-c2cccc(F)c2C)s1` [Example 199, 2,3-Dihydro-benzofuran-4-carboxylic acid {(1S,3S,5S)-2-[5-(3-fluoro-2-methyl-phenyl)-2-methyl-thiazole-4-carbonyl]-2-aza-bicyclo[3.1.0]hex-3-ylmethyl}-amide], the IC50 on human orexin-1 receptor was found to be 0.139 µM; on human orexin-2 receptor it was 0.041 µM.
